Test results published in US9587266B2, “Mutant luciferases” (University of Massachusetts, priority 2011, dated 2017).
Values joined by “and” are separate entries in the source; they are usually repeats but may differ in a detail not shown here. Identical values can stand only once. Like-named read-outs stand apart in the source and are kept apart here.

What was measured:
Assay type in all cases: biochemical
S347A mutant luciferase = target: T1, S347A mutant luciferase (Photinus pyralis, UniProt P08659, S347A); details: purified protein
T1 construct: The full firefly (Photinus pyralis) luciferase gene was PCR amplified from pGL3 (Promega); GST (N, cleaved yes); made in house; host or cells: E. coli JM109
T1 sequence (P08659 whole entry S347A): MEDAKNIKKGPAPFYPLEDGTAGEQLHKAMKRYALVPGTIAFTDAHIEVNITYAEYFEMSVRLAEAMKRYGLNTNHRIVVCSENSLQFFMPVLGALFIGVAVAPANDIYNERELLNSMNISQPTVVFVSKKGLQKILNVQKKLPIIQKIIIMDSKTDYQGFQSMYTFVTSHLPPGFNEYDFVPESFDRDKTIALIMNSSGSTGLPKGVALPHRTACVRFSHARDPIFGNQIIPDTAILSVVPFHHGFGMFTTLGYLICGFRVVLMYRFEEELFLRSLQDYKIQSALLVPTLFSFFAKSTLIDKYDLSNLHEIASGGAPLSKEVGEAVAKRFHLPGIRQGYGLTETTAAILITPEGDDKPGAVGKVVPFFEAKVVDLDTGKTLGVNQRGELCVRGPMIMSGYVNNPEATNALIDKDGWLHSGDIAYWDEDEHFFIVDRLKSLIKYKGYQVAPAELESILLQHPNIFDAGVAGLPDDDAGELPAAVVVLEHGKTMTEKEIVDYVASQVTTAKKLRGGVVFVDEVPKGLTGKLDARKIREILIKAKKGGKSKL
Method: (§1) The PCR product was cloned into the BamH1 and NotI sites of pGEX6P-1 for bacterial expression. Mutant proteins were created using the Quickchange site-directed mutagenesis kit (Stratagene). Saturating mutagenesis was performed using the used the degenerate codon NNK at sites predicted to impact or alter substrate biding including F247, T251, L286, S347, R337, R218, Q338, Y340, A313, and I351 using the degenerate codon NNK.
(§2) Luminescence assays in 96-well plates were initiated by adding 30 μL 2× substrate in 20 mM Tris pH 7.6, 0.1 mM EDTA, 8 mM MgSO4, 4 mM ATP, and 1 mM TCEP to 30 μL of 20 nM purified luciferase in 20 mM Tris pH 7.6, 0.1 mM EDTA, 1 mM TCEP and 0.4 mg/mL BSA.

R218K mutant luciferase = target: T2, R218K mutant luciferase (Photinus pyralis, UniProt P08659, R218K)
T2 construct: The full firefly (Photinus pyralis) luciferase gene was PCR amplified from pGL3 (Promega); GST (N, cleaved yes); made in house; host or cells: E. coli JM109
T2 sequence (P08659 whole entry R218K): as the sequence (P08659 whole entry S347A) above, with R218K, A347S counted along it
Method: as §1, §2

WT luciferase = target: T3, WT luciferase (Photinus pyralis, UniProt P08659); test: Titration assay with purified protein
T3 construct: The full firefly (Photinus pyralis) luciferase gene was PCR amplified from pGL3 (Promega); GST (N, cleaved yes); made in house; host or cells: E. coli JM109
T3 sequence (P08659 whole entry): as the sequence (P08659 whole entry S347A) above, with A347S counted along it
Method: as §1, with “NNK. The point mutants S347A, L286A, A348G, E311A, I351A, A313G, R337A, H245A and L342A were made independently.” for “NNK.”
as §2, with “BSA. Titration assays were performed 3 minutes post-substrate addition in a Turner Veritas luminometer with final substrate concentrations ranging from 0.122-250 μM or 0.244-500 μM.” for “BSA.”

[1] = target: T4, S347A/L286M double mutant luciferase (Photinus pyralis, UniProt P08659, L286M/S347A); test: Titration assay with purified protein; details: sustained light emission
T4 construct: The full firefly (Photinus pyralis) luciferase gene was PCR amplified from pGL3 (Promega); GST (N, cleaved yes); made in house; host or cells: E. coli JM109
T4 sequence (P08659 whole entry L286M/S347A): as the sequence (P08659 whole entry S347A) above, with L286M counted along it
Method: as §1, with “NNK. The point mutants S347A, L286A, A348G, E311A, I351A, A313G, R337A, H245A and L342A were made independently.” for “NNK.”
as §2, with “BSA. Titration assays were performed 3 minutes post-substrate addition in a Turner Veritas luminometer with final substrate concentrations ranging from 0.122-250 μM or 0.244-500 μM.” for “BSA.”

T251S mutant luciferase = target: T5, T251S mutant luciferase (Photinus pyralis, UniProt P08659, T251S); test: Titration assay with purified protein
T5 construct: The full firefly (Photinus pyralis) luciferase gene was PCR amplified from pGL3 (Promega); GST (N, cleaved yes); made in house; host or cells: E. coli JM109
T5 sequence (P08659 whole entry T251S): as the sequence (P08659 whole entry S347A) above, with T251S, A347S counted along it
Method: as §1, §2

L286M mutant luciferase = target: T6, L286M mutant luciferase (Photinus pyralis, UniProt P08659, L286M); test: Titration assay with purified protein
T6 construct: The full firefly (Photinus pyralis) luciferase gene was PCR amplified from pGL3 (Promega); GST (N, cleaved yes); made in house; host or cells: E. coli JM109
T6 sequence (P08659 whole entry L286M): as the sequence (P08659 whole entry S347A) above, with L286M, A347S counted along it
Method: as §1, §2

F247A luciferase = target: T7, F247A luciferase (Photinus pyralis, UniProt P08659, F247A); test: Bioluminescence emission scan
T7 construct: The full firefly (Photinus pyralis) luciferase gene was PCR amplified from pGL3 (Promega); GST (N, cleaved yes); made in house; host or cells: E. coli JM109
T7 sequence (P08659 whole entry F247A): as the sequence (P08659 whole entry S347A) above, with F247A, A347S counted along it
Method: (§3) Purified mutant luciferases were used in bioluminescence emission and burst kinetics scans.
(§4) Luciferase was rapidly injected into a cuvette containing substrate, and the emission from 400-800 nm was recorded in a SPEX FluoroMax-3 fluorimeter with closed excitation slits.

L286M luciferase = target: T8, L286M luciferase (Photinus pyralis, UniProt P08659, L286M); test: Bioluminescence emission scan
T8 construct: The full firefly (Photinus pyralis) luciferase gene was PCR amplified from pGL3 (Promega); GST (N, cleaved yes); made in house; host or cells: E. coli JM109
T8 sequence (P08659 whole entry L286M): as the sequence (P08659 whole entry S347A) above, with L286M, A347S counted along it
Method: as §3, §4

T251N luciferase = target: T9, T251N luciferase (Photinus pyralis, UniProt P08659, T251N); test: Bioluminescence emission scan
T9 construct: The full firefly (Photinus pyralis) luciferase gene was PCR amplified from pGL3 (Promega); GST (N, cleaved yes); made in house; host or cells: E. coli JM109
T9 sequence (P08659 whole entry T251N): as the sequence (P08659 whole entry S347A) above, with T251N, A347S counted along it
Method: as §3, §4

T251S luciferase = target: T10, T251S luciferase (Photinus pyralis, UniProt P08659, T251S); test: Bioluminescence emission scan
T10 construct: The full firefly (Photinus pyralis) luciferase gene was PCR amplified from pGL3 (Promega); GST (N, cleaved yes); made in house; host or cells: E. coli JM109
T10 sequence (P08659 whole entry T251S): as the sequence (P08659 whole entry S347A) above, with T251S, A347S counted along it
Method: as §3, §4

S347T luciferase = target: T11, S347T luciferase (Photinus pyralis, UniProt P08659, S347T); test: Bioluminescence emission scan
T11 construct: The full firefly (Photinus pyralis) luciferase gene was PCR amplified from pGL3 (Promega); GST (N, cleaved yes); made in house; host or cells: E. coli JM109
T11 sequence (P08659 whole entry S347T): as the sequence (P08659 whole entry S347A) above, with A347T counted along it
Method: as §3, §4

T251Q luciferase = target: T12, T251Q luciferase (Photinus pyralis, UniProt P08659, T251Q); test: Bioluminescence emission scan
T12 construct: The full firefly (Photinus pyralis) luciferase gene was PCR amplified from pGL3 (Promega); GST (N, cleaved yes); made in house; host or cells: E. coli JM109
T12 sequence (P08659 whole entry T251Q): as the sequence (P08659 whole entry S347A) above, with T251Q, A347S counted along it
Method: as §3, §4

F247L L286M luciferase = target: T13, F247L L286M luciferase (Photinus pyralis, UniProt P08659, F247L/L286M); test: Bioluminescence emission scan
T13 construct: The full firefly (Photinus pyralis) luciferase gene was PCR amplified from pGL3 (Promega); GST (N, cleaved yes); made in house; host or cells: E. coli JM109
T13 sequence (P08659 whole entry F247L/L286M): as the sequence (P08659 whole entry S347A) above, with F247L, L286M, A347S counted along it
Method: as §3, §4

R218K luciferase = target: T14, R218K luciferase (Photinus pyralis, UniProt P08659, R218K); test: Bioluminescence emission scan
T14 construct: The full firefly (Photinus pyralis) luciferase gene was PCR amplified from pGL3 (Promega); GST (N, cleaved yes); made in house; host or cells: E. coli JM109
T14 sequence (P08659 whole entry R218K): as the sequence (P08659 whole entry S347A) above, with R218K, A347S counted along it
Method: as §3, §4

L342A luciferase = target: T15, L342A luciferase (Photinus pyralis, UniProt P08659, L342A); test: Bioluminescence emission scan
T15 construct: The full firefly (Photinus pyralis) luciferase gene was PCR amplified from pGL3 (Promega); GST (N, cleaved yes); made in house; host or cells: E. coli JM109
T15 sequence (P08659 whole entry L342A): as the sequence (P08659 whole entry S347A) above, with L342A, A347S counted along it
Method: as §3, §4

I351A luciferase = target: T16, I351A luciferase (Photinus pyralis, UniProt P08659, I351A); test: Bioluminescence emission scan
T16 construct: The full firefly (Photinus pyralis) luciferase gene was PCR amplified from pGL3 (Promega); GST (N, cleaved yes); made in house; host or cells: E. coli JM109
T16 sequence (P08659 whole entry I351A): as the sequence (P08659 whole entry S347A) above, with A347S, I351A counted along it
Method: as §3, §4

L286M + S347A luciferase = target: T17, L286M + S347A luciferase (Photinus pyralis, UniProt P08659, L286M/S347A); test: Bioluminescence emission scan
T17 construct: The full firefly (Photinus pyralis) luciferase gene was PCR amplified from pGL3 (Promega); GST (N, cleaved yes); made in house; host or cells: E. coli JM109
T17 sequence (P08659 whole entry L286M/S347A): as the sequence (P08659 whole entry S347A) above, with L286M counted along it
Method: as §3, §4

T251S L286M luciferase = target: T18, T251S L286M luciferase (Photinus pyralis, UniProt P08659, L286M/T251S); test: Bioluminescence emission scan
T18 construct: The full firefly (Photinus pyralis) luciferase gene was PCR amplified from pGL3 (Promega); GST (N, cleaved yes); made in house; host or cells: E. coli JM109
T18 sequence (P08659 whole entry T251S/L286M): as the sequence (P08659 whole entry S347A) above, with T251S, L286M, A347S counted along it
Method: as §3, §4

L286Y luciferase = target: T19, L286Y luciferase (Photinus pyralis, UniProt P08659, L286Y); test: Bioluminescence emission scan
T19 construct: The full firefly (Photinus pyralis) luciferase gene was PCR amplified from pGL3 (Promega); GST (N, cleaved yes); made in house; host or cells: E. coli JM109
T19 sequence (P08659 whole entry L286Y): as the sequence (P08659 whole entry S347A) above, with L286Y, A347S counted along it
Method: as §3, §4

S347A luciferase = target: T20, S347A luciferase (Photinus pyralis, UniProt P08659, S347A); test: Bioluminescence emission scan
T20 construct: The full firefly (Photinus pyralis) luciferase gene was PCR amplified from pGL3 (Promega); GST (N, cleaved yes); made in house; host or cells: E. coli JM109
T20 sequence (P08659 whole entry S347A): as the sequence (P08659 whole entry S347A) above
Method: as §3, §4

F247S luciferase = target: T21, F247S luciferase (Photinus pyralis, UniProt P08659, F247S); test: Bioluminescence emission scan
T21 construct: The full firefly (Photinus pyralis) luciferase gene was PCR amplified from pGL3 (Promega); GST (N, cleaved yes); made in house; host or cells: E. coli JM109
T21 sequence (P08659 whole entry F247S): as the sequence (P08659 whole entry S347A) above, with F247S, A347S counted along it
Method: as §3, §4

F247R luciferase = target: T22, F247R luciferase (Photinus pyralis, UniProt P08659, F247R); test: Bioluminescence emission scan
T22 construct: The full firefly (Photinus pyralis) luciferase gene was PCR amplified from pGL3 (Promega); GST (N, cleaved yes); made in house; host or cells: E. coli JM109
T22 sequence (P08659 whole entry F247R): as the sequence (P08659 whole entry S347A) above, with F247R, A347S counted along it
Method: as §3, §4

F247V luciferase = target: T23, F247V luciferase (Photinus pyralis, UniProt P08659, F247V); test: Bioluminescence emission scan
T23 construct: The full firefly (Photinus pyralis) luciferase gene was PCR amplified from pGL3 (Promega); GST (N, cleaved yes); made in house; host or cells: E. coli JM109
T23 sequence (P08659 whole entry F247V): as the sequence (P08659 whole entry S347A) above, with F247V, A347S counted along it
Method: as §3, §4

[2] = 3 minutes post-substrate addition, read-out: Apparent Km

O=C(O)[C@H]1CSC(c2nc3cc4c(cc3s2)NCC4)=N1 [CycLuc1]
Apparent Vmax (S347A mutant luciferase): 135 ± 0.8 ×10^−5 cps | Km (S347A mutant luciferase; [2]): 2.68 ± 0.07 µM | Apparent Vmax (R218K mutant luciferase; R218K luciferase, purified protein): 134 ± 1.9 ×10^−5 cps | Km (R218K mutant luciferase; R218K luciferase, purified protein, 3 minutes post-substrate addition, read-out: Apparent Km): 1.8 µM and 1.79 µM | maximal sustained light emission as % of that of D-luciferin with WT luciferase (R218K mutant luciferase; R218K mutant): 12.5% | improvement in the maximal sustained emission (R218K mutant luciferase; R218K mutant relative to wild-type luciferase): 14 fold | Apparent Vmax (WT luciferase): 9.7 ± 0.1 ×10^−5 cps | Km (WT luciferase; [2]): 0.1 ± 0.01 µM | Vmax higher than wt [1]: 20 fold | Apparent Vmax (T251S mutant luciferase): 90 ± 0.9 ×10^−5 cps | Km (T251S mutant luciferase; [2]): 1.83 ± 0.09 µM | Apparent Vmax (L286M mutant luciferase): 60 ± 0.7 ×10^−5 cps | Km (L286M mutant luciferase; [2]): 0.46 ± 0.03 µM | Wavelength at Max. Emission (F247A luciferase): 605 nm | Wavelength at Max. Emission (L286M luciferase): 591 nm | Wavelength at Max. Emission (T251N luciferase): 604 nm | Wavelength at Max. Emission (T251S luciferase): 602 nm | Wavelength at Max. Emission (S347T luciferase): 601 nm | Wavelength at Max. Emission (T251Q luciferase): 612 nm | Wavelength at Max. Emission (F247L L286M luciferase): 603 nm | Maximum Emission Wavelength of Selected Substrate (R218K luciferase): 609 nm | Maximum Emission Wavelength of Selected Substrate (R218K luciferase; listed as Cyc1): 605 nm | Maximum Emission Wavelength of Selected Substrate (L342A luciferase): 597 nm | Wavelength at Max. Emission (I351A luciferase): 604 nm | Maximum Emission Wavelength of Selected Substrate (L286M + S347A luciferase): 595 nm | Wavelength at Max. Emission (T251S L286M luciferase): 601 nm | Wavelength at Max. Emission (L286Y luciferase): 604 nm | Wavelength at Max. Emission (S347A luciferase): 597 nm | Wavelength at Max. Emission (F247S luciferase): 607 nm | Wavelength at Max. Emission (F247R luciferase): 609 nm | Wavelength at Max. Emission (F247V luciferase): 603 nm
